Assay results from ChEMBL document CHEMBL1148055, “Bioactive terpenoids from Octocorallia, I. Bioactive diterpenoids: litophynols A and B from the mucus of the soft coral Litophyton sp” (J Nat Prod, 1994).

Assay: Toxicity against rabbit RBC assessed as hemolytic activity after 15 mins
Type: cell-based, Oryctolagus cuniculus
Conditions: erythrocyte, 0.25 h

| SMILES | Activity |
| --- | --- |
| C=C1[C@@H]2[C@H]([C@H](C(C)C)C[C@H]1OC(C)=O)[C@@H]1O[C@H]2C[C@](C)(O)[C@H](O)CC[C@@]1(C)OC(=O)CCC [LITOPHYNIN I MONOACETATE] | Toxic |
| C=C1CC[C@H](C(C)C)[C@@H]2[C@H]1[C@H]1C[C@](C)(O)[C@@H](O)CC[C@@](C)(OC(=O)CCC)[C@@H]2O1 [LITOPHYNIN E] | Toxic |
| C=C1CC[C@H](C(C)C)[C@@H]2[C@H]1[C@@H]1O[C@H]2[C@](C)(OC(=O)CCC)CC[C@H](O)[C@@](C)(O)[C@H]1O [LITOPHYNOL B] | Toxic |
| C=C1CC[C@H](C(C)C)[C@@H]2[C@H]1[C@@H]1O[C@H]2[C@](C)(OC(=O)CCC)CC[C@H](O)C(=C)[C@H]1O [LITOPHYNOL A] | Toxic |
